Experimental data as given in paper PMC7038073, “Substituted Piperazines as Novel Potential Radioprotective Agents” (Molecules, 2020).
Values joined by “and” are separate entries in the source; they are usually repeats but may differ in a detail not shown here. Equal values may be shown once.

Tests used:
[1] = WST-1 cytotoxicity test, MOLT-4; assay type: cell-based; conditions: human, MOLT-4 cells, 48 h, WST-1, mean ± SD of three experiments, read-out: relative viability (%) compared to untreated control; for viability at 48 h, 10 µM: MOLT-4, 10 µM; for viability at 48 h, 100 µM: MOLT-4, 100 µM
Method: (§1) In this study, the cytotoxic effects of nine new compounds (2, 3, 4, 5, 6, 7, 8, 9, 10) were tested on 10 human cell lines (nine cancer and one non-cancer cell line). The cell lines were treated with each compound at concentrations of 10 µM and 100 µM for 48 h. The proliferation capacity of the treated cells was determined by WST-1 test and compared against the proliferation rate of the untreated control cells (100%).
(§2) The cell lines Jurkat, MOLT-4, A2780, A549, HT-29, PANC-1, HeLa, MCF-7, SAOS-2, and MRC-5 (all purchased from Sigma Aldrich, Czech Republic) were included in this study. All cell lines were maintained according to the provider’s guidelines, and plated and treated in 96-well plates (500 to 30 × 10^3 cells per well). The tested compounds 2, 3, 4, 5, 6, 7, 8, 9, and 10 were dissolved in 0.1% DMSO and kept in 10 mM stock solutions. Before use, the stock solution was diluted in culture media at ratios of 1:100 and 1:1000. The studied cell lines were treated with the compounds 2, 3, 4, 5, 6, 7, 8, 9, and 10 at concentrations of 10 and 100 µM for 48 h. Control cells were tested in culture media with and without DMSO (0.1%). The cells were also treated with 1 µM doxorubicin as a cytotoxicity control.
(§3) The WST-1 (2-(4-iodophenyl)-3-(4-nitrophenyl)-5-(2,4-disulfophenyl)-2H-tetrazolium, monosodium salt) test (Roche, Mannheim, Germany) was used according to the manufacturer’s protocol to determine cell viability in all 10 cell lines 48 h after treatment with the tested compounds. The cells were analyzed in a Tecan Infinite M200 spectrometer (Tecan Group, Männedorf, Switzerland) at 440 nm.

[2] = WST-1 cytotoxicity test, A2780; assay type: cell-based; conditions: human, A2780 cells, 48 h, WST-1, mean ± SD of three experiments, read-out: relative viability (%) compared to untreated control; for viability at 48 h, 10 µM: A2780, 10 µM; for viability at 48 h, 100 µM: A2780, 100 µM
Method: as §1, §2, §3

[3] = WST-1 cytotoxicity test, HeLa; assay type: cell-based; conditions: human, HeLa cells, 48 h, WST-1, mean ± SD of three experiments, read-out: relative viability (%) compared to untreated control
Method: as §1, §2, §3

BALB/c mice = assay: Safe use evaluation in vivo (MTD, symptoms, blood biochemistry, histopathology); set-up: key to piloerection / ataxia / prostration / tremor / excitation / saber-like tail / stooping / hyper/hypoventilation / drop of eyelids / lacrimation / convulsion: + (mild); ++ (moderate); +++ (severe); conditions: for histopathological change: focal necrosis: necropsy 48 h after administration, one animal each; for ALP / ALT / AST / Amylase / Creatinine / Glucose / Urea: plasma 48 h after MTD i.p.
From the text: Mild to moderate signs of intoxication could be observed once the MTD (maximum tolerated dose) was reached. In vivo, MTD is described as the highest dose of a given compound that can be administered before showing signs of toxicity (based on the same dose regimen or series) and whose excess would be expected to be fatal, yielding unreliable results. Therefore, a staged approach (including core and intermediate dose levels) has become a suitable strategy in this regard.
The symptoms described in Tables S1 (in Supplementary Materials) and S2 (in Supplementary Materials) diminished spontaneously within 2 h. After observing these symptoms, MTD thresholds were set at 100, 200, 100, 200, 2000, and 650 mg/kg for compounds 4, 5, 6, 7, 8, and 10, respectively. Animals receiving MTD were further examined by necropsy 48 h after administration. Plasma (reflecting biochemical changes in blood), intestine with mesentery (site of administration), and liver and kidney (elimination organs) were collected to evaluate the toxic potential of the tested compounds. For evaluation of the impact of the compounds on organ function, we performed blood biochemistry test 48 h after administration. The test focused on seven important indicators: glucose and amylase for normal function of pancreas, alanine aminotransferase (ALT), aspartate aminotransferase (AST), and alkaline phosphatase (ALP) for the normal function of liver, and urea and creatinine for the normal function of kidneys. […] According to Thoolen et al., focal necrosis can be occasionally seen in untreated rodents and therefore is not pathognomonic of hepatotoxicity, which is consistent with our findings.
Both male and female BALB/c mice (Velaz s r.o., Prague, Czech Republic) with an average weight of 21 ± 0.8 g and 21 ± 0.8 g, respectively, were selected for the safe use evaluation in vivo. The mice were housed in environmentally controlled breeding units (Faculty of Military Health Sciences vivarium; temperature 21 ± 1 °C, 12/12 h light/dark cycle) with access to food (Cerea corp., Pardubice, Czech Republic) and water ad libitum. The acclimatization period of the mice was at least 10 days before each experiment. All experimental procedures and protocols were reviewed and approved by the Ethics Committee of the Faculty of Military Health Sciences in Hradec Kralove, University of Defence in Brno. Compounds 2, 3, 4, 5, 6, 7, 8, 9, and 10 were dissolved in physiological saline solution (B. Braun Melsungen AG, Melsungen, Germany) and injected intraperitoneally (i.p.) into the corresponding mouse groups, which were composed of two males and two females. Several doses were administered to determine the maximum tolerated dose (MTD), which was assessed by close observation for signs of toxicity within the first two hours after administration of the compounds, and then regularly over the following 48 h. The observed symptoms were registered according to the laboratory Animal Science Association UK guidelines (for a detailed description, see [36]. After 48 h, the surviving animals were euthanized with CO2 and evaluated by basic macroscopic necropsy. Venous blood was collected into heparinized tubes (Scanlab Systems, Prague, Czech Republic) and the plasma was separated in a U-320R centrifuge (Boeco, Hamburg, Germany) to further evaluate the toxic potential of the tested compounds. The concentrations of glucose, urea, and creatinine and the levels of alanine aminotransferase (ALT), aspartate aminotransferase (AST), alkaline phosphatase (ALP), and amylase were evaluated in a qualified biochemical laboratory of the University Hospital Hradec Kralove (Hradec Kralove, Czech Republic). Additionally, intestine, liver, and kidney samples were collected for histopathologic examination. […]

A549 cells = assay: MTT assay, IC50 and MTC; conditions: for IC50 fold higher than that for compound 2 / MTC (maximum tolerated concentration): A549 cells, MTT; for MTC (maximum tolerated concentration): 24 h of treatment; for IC50: Homo sapiens, A549, 24 h, read-out: IC50 ± SEM
Method: In further experiments, MTT (3-(4,5-di-methylthiazol-2-yl)-2,5-diphenyltetrazolium bromide) assay was employed to evaluate the toxicological indexes of the newly synthesized compounds, including IC50 (half-maximal inhibitory concentration) and MTC (maximum tolerated concentration).
IC50 and MTC were determined through MTT assays. The MTT assay was performed according to [35]. In brief, the A549 cell line was plated in 96-well plates (100 µL, 9 × 10^3 cells per well) and incubated overnight. The tested compounds were prepared in phosphate buffer saline (PBS; Sigma–Aldrich) and serially diluted in DMEM (Dulbecco’s Modified Eagle Medium). An untreated control was included as a viability standard in each plate. After 24 h of treatment, the viability of A549 cells was measured at 570 nm. All experiments were performed in triplicate. The GraphPad Prism statistics software v5.04 (GraphPad Software Inc., San Diego, CA, USA) was used to calculate the IC50 values for parameter nonlinear regression. Values are expressed as mean ± SEM.

[4] = female BALB/c mice, animals 1 and 2
[5] = female mice, at MTD i.p., animals 1 and 2
[6] = male BALB/c mice, animals 1 and 2
[7] = male mice, at MTD i.p., animals 1 and 2

SMILES	viability at 48 h, 10 µM [1]	viability at 48 h, 100 µM [1]	viability at 48 h, 10 µM [2]	viability at 48 h, 100 µM [2]	viability at 48 h, 10 µM [3]	viability at 48 h, 100 µM [3]	ALP (BALB/c mice; [4])	ALT (BALB/c mice; [4])	AST (BALB/c mice; [4])	Amylase (BALB/c mice; [4])	Creatinine (BALB/c mice; [4])	Glucose (BALB/c mice; [4])	Urea (BALB/c mice; [4])	prostration (BALB/c mice; [5])	ALP (BALB/c mice; [6])	ALT (BALB/c mice; [6])	AST (BALB/c mice; [6])	IC50 fold higher than that for compound 2 (A549 cells)	MTC (maximum tolerated concentration) (A549 cells)	IC50 (A549 cells)	further results
Cc1cc(OCC(O)CN2CCN(CCO)CC2)ccc1Cl.Cl.Cl (centres unmarked) [Compound 4, 1-(4-chloro-3-methylphenoxy)-3-(4-(2-hydroxyethyl)piperazin-1-yl)propan-2-ol dihydrochloride]	88 ± 6%	92 ± 6%	98 ± 2%	89 ± 1%	106 ± 2%	137 ± 5%	83 U/L and 76 U/L	28 U/L	93 U/L and 61 U/L	2632 U/L and 2216 U/L	78 µg/dL and 79 µg/dL	237 mg/dL and 228 mg/dL	65 mg/dL and 38 mg/dL	+	77 U/L and 63 U/L	41 U/L and 43 U/L	124 U/L and 121 U/L	16.0 fold	0.05 mM	640 ± 30 µM	histopathological change: focal necrosis (BALB/c mice; at MTD i.p.): one small focus; drop of eyelids (BALB/c mice; [5]): +; weight at 24 h (%) (BALB/c mice; [5]): -5.7% and -4.1%; weight at 48 h (%) (BALB/c mice; [5]): -7.3% and -7.9%; Amylase (BALB/c mice; [6]): 1905 U/L and 2464 U/L; Creatinine (BALB/c mice; [6]): 79 µg/dL and 45 µg/dL; Glucose (BALB/c mice; [6]): 226 mg/dL and 227 mg/dL; Urea (BALB/c mice; [6]): 39 mg/dL and 53 mg/dL; hyper/hypoventilation (BALB/c mice; [7]): +; prostration (BALB/c mice; [7]): +; weight at 24 h (%) (BALB/c mice; [7]): -2.6% and -3.0%; weight at 48 h (%) (BALB/c mice; [7]): -4.6% and -3.7%
Cl.Cl.Cl.OCCN1CCN(CCCNc2cccc3ccccc23)CC1 [Compound 6, 2-(4-(3-(naphthalen-1-ylamino)propyl)piperazin-1-yl)ethanol trihydrochloride]	90 ± 7%	112 ± 4%	74 ± 3%	95 ± 4%	108 ± 6%	104 ± 7%	86 U/L and 95 U/L	29 U/L and 27 U/L	53 U/L and 50 U/L	2922 U/L and 2835 U/L	22 µg/dL and 34 µg/dL	199 mg/dL and 212 mg/dL	65 mg/dL and 55 mg/dL	+	38 U/L and 36 U/L	28 U/L and 25 U/L	64 U/L and 62 U/L	11.3 fold	0.02 mM	450 ± 10 µM	ataxia (BALB/c mice; [5]): ++; drop of eyelids (BALB/c mice; [5]): +; hyper/hypoventilation (BALB/c mice; [5]): ++; stooping (BALB/c mice; [5]): ++; Amylase (BALB/c mice; [6]): 2124 U/L and 2086 U/L; Creatinine (BALB/c mice; [6]): 45 µg/dL and 23 µg/dL; Glucose (BALB/c mice; [6]): 130 mg/dL and 177 mg/dL; Urea (BALB/c mice; [6]): 42 mg/dL and 35 mg/dL; ataxia (BALB/c mice; [7]): +; drop of eyelids (BALB/c mice; [7]): +; hyper/hypoventilation (BALB/c mice; [7]): ++; piloerection (BALB/c mice; [7]): +; prostration (BALB/c mice; [7]): +; stooping (BALB/c mice; [7]): ++; tremor (BALB/c mice; [7]): +; weight at 48 h (%) (BALB/c mice; [7]): -2.3% and -3.0%
Cl.Cl.OC(CNc1ccccc1)CNc1ccccc1 [Compound 9, 1,3-bis(phenylamino)propan-2-ol dihydrochloride]	103 ± 8%	71 ± 4%	90 ± 3%	64 ± 5%	99 ± 9%	90 ± 14%												6.0 fold	0.09 mM	240 ± 10 µM	
Cl.Cl.Cl.OCCN1CCN(CC(O)CNc2ccccc2)CC1 (centres unmarked) [Compound 10, 1-(phenylamino]-3-[4-(2-hydroxyethyl)piperazin-1-yl)propan-2-ol trihydrochloride]	112 ± 6%	100 ± 4%	103 ± 6%	96 ± 2%	110 ± 7%	121 ± 3%	67 U/L and 73 U/L	27 U/L and 24 U/L	55 U/L and 56 U/L	1939 U/L and 1826 U/L	68 µg/dL and 67 µg/dL	225 mg/dL and 178 mg/dL	38 mg/dL	++	42 U/L and 61 U/L	24 U/L and 30 U/L	58 U/L and 51 U/L	126.5 fold	1.56 mM	5060 ± 230 µM	histopathological change: focal necrosis (BALB/c mice; at MTD i.p.): five small foci; ataxia (BALB/c mice; [5]): +; convulsion (BALB/c mice; [5]): +; excitation (BALB/c mice; [5]): +; hyper/hypoventilation (BALB/c mice; [5]): +; tremor (BALB/c mice; [5]): +; weight at 24 h (%) (BALB/c mice; [5]): -1.5% and -5.6%; Amylase (BALB/c mice; [6]): 2212 U/L and 2080 U/L; Creatinine (BALB/c mice; [6]): 34 µg/dL; Glucose (BALB/c mice; [6]): 189 mg/dL and 236 mg/dL; Urea (BALB/c mice; [6]): 47 mg/dL and 43 mg/dL; ataxia (BALB/c mice; [7]): +; excitation (BALB/c mice; [7]): +; hyper/hypoventilation (BALB/c mice; [7]): +; prostration (BALB/c mice; [7]): ++; tremor (BALB/c mice; [7]): +
